# Reference: PubChem BioAssay AID1259408 (Genetic Toxicology Data Bank (GENE-TOX), 2018)
# Active and inactive are the calls of the source. How the calls were made is not given here.
# Test system: GENE-TOX genotoxicity assays, various organisms and cells
# Experiment: GENE-TOX mutagenicity studies
# Details: for call: Assay Type: In vivo carcinogenicity studies
# [1] = Species/Cell Type: Human, Assay Type: Sister-chromatid exchange (SCE) in vitro, Assay Code: SC1+, Evaluation Type: Evaluation B (Post-1980)
# [2] = Species/Cell Type: Salmonella typhimurium (one or more of the five standard strains: TA98, TA100, TA1535, TA1537, and TA1538), Assay Type: Histidine reverse gene mutation, Ames assay, Assay Code: SAL+, Evaluation Type: Evaluation A (Pre-1980)
# [3] = Species/Cell Type: Saccharomyces cerevisiae, Assay Type: Mitotic recombination or gene conversion, Assay Code: YEC-, Evaluation Type: Evaluation A (Pre-1980)
# [4] = Species/Cell Type: Salmonella typhimurium (one or more of the five standard strains: TA98, TA100, TA1535, TA1537, and TA1538), Assay Type: Histidine reverse gene mutation, Ames assay, Assay Code: SAL+*, Activation: With metabolic activation, Evaluation Type: Evaluation A (Pre-1980)
# [5] = Species/Cell Type: Nonhuman, Assay Type: Sister-chromatid exchange (SCE) in vitro, Assay Code: SC2+, Evaluation Type: Evaluation B (Post-1980)
# [6] = Species/Cell Type: Salmonella typhimurium (one or more of the five standard strains: TA98, TA100, TA1535, TA1537, and TA1538), Assay Type: Histidine reverse gene mutation, Ames assay, Assay Code: SALT, Evaluation Type: Evaluation A (Pre-1980)
# [7] = Species/Cell Type: Rodents, Sex: Male, Assay Type: Dominant lethal test, Assay Code: DLT-, Evaluation Type: Evaluation A (Pre-1980)
# [8] = Species/Cell Type: Nonhuman, Assay Type: Sister-chromatid exchange (SCE) in vitro, Assay Code: SC2+D, Dose Response: With dose response, Evaluation Type: Evaluation B (Post-1980)
smiles,measurement,setting,value
O=C(O)c1ccccc1,mutagenic call,"Species/Cell Type: Escherichia coli WP2, Assay Type: Tryptophan reverse gene mutation, Assay Code: WP2-*, Activation: With metabolic activation, Evaluation Type: Evaluation A (Pre-1980)",inactive; negative
same,mutagenic call,"Species/Cell Type: Escherichia coli WP2 UVRA, Assay Type: Tryptophan reverse gene mutation, Assay Code: WPU-*, Activation: With metabolic activation, Evaluation Type: Evaluation A (Pre-1980)",inactive; negative
same,mutagenic call,[1],active; positive
same,mutagenic call,"Species/Cell Type: Saccharomyces cerevisiae, Assay Type: Mitotic recombination or gene conversion, Assay Code: YEH-, Evaluation Type: Evaluation A (Pre-1980)",inactive; negative
same,mutagenic call,"Species/Cell Type: Salmonella typhimurium (one or more of the five standard strains: TA98, TA100, TA1535, TA1537, and TA1538), Assay Type: Histidine reverse gene mutation, Ames assay, Assay Code: SAL-, Evaluation Type: Evaluation A (Pre-1980)",inactive; negative
CCNC(N)=O,mutagenic call,"Species/Cell Type: Salmonella typhimurium, Assay Type: Forward and reverse gene mutation, host-mediated assay, Assay Code: HMA+, Evaluation Type: Evaluation A (Pre-1980)",active; positive
CNC(=O)Oc1ccccc1C(C)C,mutagenic call,"Species/Cell Type: Bacillus subtilis (H17 vs M45T), Assay Type: Rec-assay, spot test, DNA effects (bacterial DNA repair), Assay Code: REX-, Evaluation Type: Evaluation A (Pre-1980)",inactive; negative
same,mutagenic call,"Species/Cell Type: Escherichia coli WP2, Assay Type: Tryptophan reverse gene mutation, Assay Code: WP2-, Evaluation Type: Evaluation A (Pre-1980)",inactive; negative
Cl/C=C/CCl,mutagenic call,[2],active; positive
C=Cc1cc(C)cc(C)c1,mutagenic call,"Species/Cell Type: Human lymphocytes, Assay Type: Sister-chromatid exchange (SCE) in vitro, Assay Code: SCL+D, Dose Response: With dose response, Evaluation Type: Evaluation B (Post-1980)",active; positive
same,mutagenic call,"Species/Cell Type: Human, Assay Type: Sister-chromatid exchange (SCE) in vitro, Assay Code: SC1+D, Dose Response: With dose response, Evaluation Type: Evaluation B (Post-1980)",active; positive
Cn1c([N+](=O)[O-])cnc1/C=N/N1CC(CN2CCOCC2)OC1=O (stereo not given),mutagenic call,"Species/Cell Type: Drosophila melanogaster, Assay Type: Sex-linked recessive lethal gene mutation, Assay Code: SRLT, Evaluation Type: Evaluation A (Pre-1980)",no conclusion
same,mutagenic call,"Species/Cell Type: Mouse, Sex: Female, Assay Type: Spot test, gene mutation, Assay Code: MST+, Evaluation Type: Evaluation A (Pre-1980)",active; positive
same,mutagenic call,[3],inactive; negative
c1ccc2c(c1)cc1ccc3c4ccccc4cc4ccc2c1c43,call,"Species/Cell Type: Nonhuman, Assay Code: CCG+, Evaluation Type: Evaluation A (Pre-1980)",active; positive
COc1ccc2c3c(cccc13)C(=O)c1ccccc1-2,mutagenic call,[4],active; positive
C=COC=C,mutagenic call,[5],active; positive
CCCCCN(CCCC(=O)O)N=O,mutagenic call,[6],no conclusion
Clc1ccc(C(c2ccccc2Cl)C(Cl)(Cl)Cl)cc1 (stereo not given),mutagenic call,"Species/Cell Type: Nonhuman, Assay Type: Chromosome aberrations in vitro, Assay Code: CY&+, Evaluation Type: Evaluation A (Pre-1980)",active; positive
O=CCBr,mutagenic call,"Species/Cell Type: Escherichia coli polA (W3119 vs P3478), Assay Type: Rec-assay, DNA effects (bacterial DNA repair), Assay Code: RE1+, Evaluation Type: Evaluation A (Pre-1980)",active; positive
C[CH2][Pb]([CH2]C)([CH2]C)[CH2]C,mutagenic call,"Species/Cell Type: Syrian hamster embryo (SA7/SHE) cells, Assay Type: Cell transformation, viral enhanced, Assay Code: CT7+, Evaluation Type: Evaluation A (Pre-1980)",active; positive
O=[N+]([O-])O,mutagenic call,"Species/Cell Type: Bacillus subtilis (H17 vs M45), Assay Type: Rec-assay, spot test, DNA effects (bacterial DNA repair), Assay Code: REW+, Evaluation Type: Evaluation A (Pre-1980)",active; positive
same,mutagenic call,"Species/Cell Type: Mammalian polychromatic erythrocytes, Assay Type: Micronucleus test, chromosome aberrations, Assay Code: MNT+U, Dose Response: Unconfirmed positive response, Evaluation Type: Evaluation B (Post-1980)",active; positive
same,mutagenic call,"Species/Cell Type: Syrian hamster embryo (SA7/SHE) cells, Assay Type: Cell transformation, viral enhanced, Assay Code: CT7-, Evaluation Type: Evaluation A (Pre-1980)",inactive; negative
same,mutagenic call,"Species/Cell Type: Syrian hamster embryo (SHE) cells, Assay Type: Cell transformation, clonal assay, Assay Code: CTCT, Evaluation Type: Evaluation A (Pre-1980)",no conclusion
CCCCCCCCCCCC(=O)N(C)N=O,mutagenic call,"Species/Cell Type: Saccharomyces cerevisiae, Assay Type: Reverse gene mutation, Assay Code: YER+, Evaluation Type: Evaluation A (Pre-1980)",active; positive
NCC(O)CCl (stereo not given),mutagenic call,[7],inactive; negative
CN(N=O)C(=O)Oc1cccc2ccccc12,mutagenic call,"Species/Cell Type: Bacillus subtilis (H17 vs M45T), Assay Type: Rec-assay, spot test, DNA effects (bacterial DNA repair), Assay Code: REX+, Evaluation Type: Evaluation A (Pre-1980)",active; positive
same,mutagenic call,"Species/Cell Type: Escherichia coli WP2, Assay Type: Tryptophan reverse gene mutation, Assay Code: WP2+, Evaluation Type: Evaluation A (Pre-1980)",active; positive
same,mutagenic call,[8],active; positive
same,mutagenic call,"Species/Cell Type: Saccharomyces cerevisiae, Assay Type: Mitotic recombination or gene conversion, Assay Code: YEC+, Evaluation Type: Evaluation A (Pre-1980)",active; positive
same,mutagenic call,[2],active; positive
Nc1ccc(S(=O)(=O)O)c2ccccc12,mutagenic call,[6],no conclusion
O=C(O)c1c(Cl)c(Cl)c(Cl)c(Cl)c1-c1c2cc(I)c(=O)c(I)c-2oc2c(I)c(O)c(I)cc12,mutagenic call,"Species/Cell Type: Bacillus subtilis (H17 vs M45), Assay Type: Rec-assay, spot test, DNA effects (bacterial DNA repair), Assay Code: REWT, Evaluation Type: Evaluation A (Pre-1980)",no conclusion
same,mutagenic call,"Species/Cell Type: Bacillus subtilis (H17 vs M45T), Assay Type: Rec-assay, spot test, DNA effects (bacterial DNA repair), Assay Code: REXT, Evaluation Type: Evaluation A (Pre-1980)",no conclusion
same,mutagenic call,"Species/Cell Type: Human, Assay Type: Sister-chromatid exchange (SCE) in vitro, Assay Code: SC1T, Evaluation Type: Evaluation B (Post-1980)",no conclusion
same,mutagenic call,"Species/Cell Type: Nonhuman, Assay Type: Sister-chromatid exchange (SCE) in vitro, Assay Code: SC2T, Evaluation Type: Evaluation B (Post-1980)",no conclusion
same,mutagenic call,[3],inactive; negative
C[C@@]1(CO)[C@H](O)CC[C@@]2(C)[C@H]1CC[C@H]1C[C@@H]3C[C@@]12CC[C@]3(O)CO,mutagenic call,"Species/Cell Type: Human lymphocytes, Assay Type: Sister-chromatid exchange (SCE) in vitro, Assay Code: SCL+, Evaluation Type: Evaluation B (Post-1980)",active; positive
same,mutagenic call,[1],active; positive
same,mutagenic call,[8],active; positive
OCCN1CN(CCO)CN(CCO)C1,mutagenic call,"Species/Cell Type: Mammalian polychromatic erythrocytes, Assay Type: Micronucleus test, chromosome aberrations, Assay Code: MNTT, Evaluation Type: Evaluation A (Pre-1980)",no conclusion
C=COCC(F)(F)F,mutagenic call,[5],active; positive
same,mutagenic call,[4],active; positive
same,mutagenic call,"Species/Cell Type: Salmonella typhimurium and Escherichia coli, Assay Type: Forward and reverse gene mutation, body fluid assay, Assay Code: BFB-, Evaluation Type: Evaluation A (Pre-1980)",inactive; negative
CCCCCc1cc(OC(=O)CCCN2CCOCC2)c2c(c1)OC(C)(C)[C@@H]1CCC(C)=C[C@@H]21,mutagenic call,"Species/Cell Type: Human diploid fibroblasts, Assay Type: Unscheduled DNA synthesis (UDS) in vitro, DNA effects, Assay Code: UDH-, Evaluation Type: Evaluation A (Pre-1980)",inactive; negative
Nc1c[nH]c(=O)[nH]c1=O,mutagenic call,"Species/Cell Type: Allium cepa, Assay Type: Chromosome aberrations, Assay Code: ALC+, Evaluation Type: Evaluation A (Pre-1980)",active; positive
Nc1ccc(O)c([N+](=O)[O-])c1,mutagenic call,"Species/Cell Type: Fischer rat embryo (RLV/1706) cells, Assay Type: Cell transformation, viral enhanced, Assay Code: CTR+, Evaluation Type: Evaluation A (Pre-1980)",active; positive
same,call,"Species/Cell Type: Nonhuman, Assay Code: CCG+L, Evaluation Type: Evaluation A (Pre-1980)",active; positive
same,mutagenic call,[7],inactive; negative
